ChEMBL document CHEMBL4118060, “A unique mid-sequence linker used to multimerize the lipid-phosphatidylserine (PS) binding peptide-peptoid hybrid PPS1” (Eur J Med Chem, 2017)
The source made the active and inactive calls. The rule behind the calls is not given here. Bridge positions count the residues as written; N and C are the ends. Square brackets hold non-standard residues; d marks the D form. Side chains are listed from the residue outwards. Peptide text beside a SMILES is read from it. I, II: the chains in the order shown. ξ: configuration not given here. Gly(N-piperonyl) = O=C(O)CNCc1ccc2c(c1)OCO2; N(4-MeOBn)Gly = COc1ccc(CNCC(=O)O)cc1; Nrpe = C[C@@H](NCC(=O)O)c1ccccc1; NAllylGly = C=CCNCC(=O)O; AEEA = NCCOCCOCC(=O)O; Nlys = NCCCCNCC(=O)O; ξK = NCCCCC(N)C(=O)O; ξM = CSCCC(N)C(=O)O; Nme = COCCNCC(=O)O; βAla = NCCC(=O)O

System: HCC4017
Experiment: Cytotoxicity against human HCC4017 cells assessed as decrease in cell viability at 0.001 to 50 uM after 24 hrs by calcein AM dye-based fluorescence assay
Type: functional

| SMILES | Activity |
| --- | --- |
| COc1ccc(CN(CC(=O)NC(CCCCNC(=O)C(CCCCNC(=O)C(CCCCN)NC(=O)C(CCCCN)NC(=O)C(CCSC)NC(=O)CN)NC(=O)CN(Cc2ccc(OC)cc2)C(=O)CN(C(=O)CN(Cc2ccc3c(c2)OCO3)C(=O)CN[C@H](C)c2ccccc2)[C@H](C)c2ccccc2)C(=O)NCCCCC(NC(=O)CN(Cc2ccc(OC)cc2)C(=O)CN(C(=O)CN(Cc2ccc3c(c2)OCO3)C(=O)CN[C@H](C)c2ccccc2)[C@H](C)c2ccccc2)C(=O)NC(CCCCN)C(=O)NC(CCCCN)C(=O)NC(CCSC)C(N)=O)C(=O)CN(C(=O)CN(Cc2ccc3c(c2)OCO3)C(=O)CN[C@H](C)c2ccccc2)[C@H](C)c2ccccc2)cc1 (some centres undefined) (I: H-[Nrpe][Gly(N-piperonyl)][Nrpe][N(4-MeOBn)Gly][ξK][ξK][ξK][ξM]-NH2 / II: H-[Nrpe][Gly(N-piperonyl)][Nrpe][N(4-MeOBn)Gly][ξK]([ξK-ξK-ξM-Gly]) / III: H-[Nrpe][Gly(N-piperonyl)][Nrpe][N(4-MeOBn)Gly][ξK]; amide I:5-III:C, II:C-III:5) | Active |

System: HCC4017
Experiment: Cytotoxicity against human HCC4017 cells assessed as decrease in cell viability at 0.001 to 50 uM after 24 hrs by MTS assay
Type: functional, cell-based

| SMILES | Activity |
| --- | --- |
| COc1ccc(CN(CC(=O)N(CCCCN)CC(=O)NC(CCCCN)C(=O)NC(CCCCN)C(=O)NC(CCSC)C(=O)NCCCCC(NC(=O)C(CCSC)NC(=O)C(CCCCN)NC(=O)C(CCCCN)NC(=O)CN(CCCCN)C(=O)CN(Cc2ccc(OC)cc2)C(=O)CN(C(=O)CN(Cc2ccc3c(c2)OCO3)C(=O)CN[C@H](C)c2ccccc2)[C@H](C)c2ccccc2)C(N)=O)C(=O)CN(C(=O)CN(Cc2ccc3c(c2)OCO3)C(=O)CN[C@H](C)c2ccccc2)[C@H](C)c2ccccc2)cc1 (some centres undefined) (I: H-[Nrpe][Gly(N-piperonyl)][Nrpe][N(4-MeOBn)Gly][Nlys][ξK][ξK][ξM][ξK]-NH2 / II: H-[Nrpe][Gly(N-piperonyl)][Nrpe][N(4-MeOBn)Gly][Nlys][ξK][ξK][ξM]; amide I:9-II:C) | Active |
| C=CCNCC(=O)N(CCOC)CC(=O)N(CC=C)CC(=O)N(CCOC)CC(=O)N(CC=C)CC(=O)NCC(=O)NC(CCCCN)C(=O)NC(CCSC)C(=O)NCCCCC(NC(=O)C(CCSC)NC(=O)C(CCCCN)NC(=O)CNC(=O)CN(CC=C)C(=O)CN(CCOC)C(=O)CN(CC=C)C(=O)CN(CCOC)C(=O)CNCC=C)C(N)=O (centres undefined) (I: H-[NAllylGly][Nme][NAllylGly][Nme][NAllylGly]GKMK-NH2 / II: H-[NAllylGly][Nme][NAllylGly][Nme][NAllylGly]GKM; amide I:9-II:C; configuration not given here) | inactive |
| COc1ccc(CN(CC(=O)NC(CCCCNC(=O)C(CCCCNC(=O)C(CCCCN)NC(=O)C(CCCCN)NC(=O)C(CCSC)NC(=O)CN)NC(=O)CN(Cc2ccc(OC)cc2)C(=O)CN(C(=O)CN(Cc2ccc3c(c2)OCO3)C(=O)CN[C@H](C)c2ccccc2)[C@H](C)c2ccccc2)C(=O)NCCCCC(NC(=O)CN(Cc2ccc(OC)cc2)C(=O)CN(C(=O)CN(Cc2ccc3c(c2)OCO3)C(=O)CN[C@H](C)c2ccccc2)[C@H](C)c2ccccc2)C(=O)NC(CCCCN)C(=O)NC(CCCCN)C(=O)NC(CCSC)C(N)=O)C(=O)CN(C(=O)CN(Cc2ccc3c(c2)OCO3)C(=O)CN[C@H](C)c2ccccc2)[C@H](C)c2ccccc2)cc1 (some centres undefined) (I: H-[Nrpe][Gly(N-piperonyl)][Nrpe][N(4-MeOBn)Gly][ξK][ξK][ξK][ξM]-NH2 / II: H-[Nrpe][Gly(N-piperonyl)][Nrpe][N(4-MeOBn)Gly][ξK]([ξK-ξK-ξM-Gly]) / III: H-[Nrpe][Gly(N-piperonyl)][Nrpe][N(4-MeOBn)Gly][ξK]; amide I:5-III:C, II:C-III:5) | Active |
| COc1ccc(CN(CC(=O)NC(CCCCNC(=O)C(CCCCN)NC(=O)C(CCCCN)NC(=O)CN)C(=O)NCCC(=O)NCCCCC(NC(=O)CN(Cc2ccc(OC)cc2)C(=O)CN(C(=O)CN(Cc2ccc3c(c2)OCO3)C(=O)CN[C@H](C)c2ccccc2)[C@H](C)c2ccccc2)C(=O)NC(CCCCN)C(=O)NC(CCCCN)C(=O)NC(CCSC)C(N)=O)C(=O)CN(C(=O)CN(Cc2ccc3c(c2)OCO3)C(=O)CN[C@H](C)c2ccccc2)[C@H](C)c2ccccc2)cc1 (some centres undefined) (I: H-[Nrpe][Gly(N-piperonyl)][Nrpe][N(4-MeOBn)Gly][ξK][ξK][ξK][ξM]-NH2 / II: H-[Nrpe][Gly(N-piperonyl)][Nrpe][N(4-MeOBn)Gly][ξK]([ξK-ξK-Gly])[βAla]; amide I:5-II:C) | Active |
| COc1ccc(CN(CC(=O)N(CCCCN)CC(=O)NC(CCCCN)C(=O)NC(CCCCN)C(=O)NC(CCSC)C(N)=O)C(=O)CN(C(=O)CN(Cc2ccc3c(c2)OCO3)C(=O)CN[C@H](C)c2ccccc2)[C@H](C)c2ccccc2)cc1 (some centres undefined) (H-[Nrpe][Gly(N-piperonyl)][Nrpe][N(4-MeOBn)Gly][Nlys][ξK][ξK][ξM]-NH2) | inactive |
| COc1ccc(CN(CC(=O)NC(CCCCNC(=O)C(CCCCN)NC(=O)C(CCCCN)NC(=O)CN)C(=O)NC(CCCCN)C(=O)NC(CCCCN)C(N)=O)C(=O)CN(C(=O)CN(Cc2ccc3c(c2)OCO3)C(=O)CN[C@H](C)c2ccccc2)[C@H](C)c2ccccc2)cc1 (some centres undefined) (H-[Nrpe][Gly(N-piperonyl)][Nrpe][N(4-MeOBn)Gly][ξK]([ξK-ξK-Gly])[ξK][ξK]-NH2) | inactive |
| COc1ccc(CN(CC(=O)NC(CCCCNC(=O)C(CCCCN)NC(=O)C(CCCCN)NC(=O)CN)C(=O)NCCCCC(NC(=O)CN(Cc2ccc(OC)cc2)C(=O)CN(C(=O)CN(Cc2ccc3c(c2)OCO3)C(=O)CN[C@H](C)c2ccccc2)[C@H](C)c2ccccc2)C(=O)NC(CCCCN)C(=O)NC(CCCCN)C(=O)NC(CCSC)C(N)=O)C(=O)CN(C(=O)CN(Cc2ccc3c(c2)OCO3)C(=O)CN[C@H](C)c2ccccc2)[C@H](C)c2ccccc2)cc1 (some centres undefined) (I: H-[Nrpe][Gly(N-piperonyl)][Nrpe][N(4-MeOBn)Gly][ξK][ξK][ξK][ξM]-NH2 / II: H-[Nrpe][Gly(N-piperonyl)][Nrpe][N(4-MeOBn)Gly][ξK]([ξK-ξK-Gly]); amide I:5-II:C) | Active |
| COc1ccc(CN(CC(=O)NC(CCCCNC(=O)C(CCCCN)NC(=O)C(CCCCN)NC(=O)CN)C(=O)NCCOCCOCC(=O)NCCC(=O)NCCCCC(NC(=O)CN(Cc2ccc(OC)cc2)C(=O)CN(C(=O)CN(Cc2ccc3c(c2)OCO3)C(=O)CN[C@H](C)c2ccccc2)[C@H](C)c2ccccc2)C(=O)NC(CCCCN)C(=O)NC(CCCCN)C(=O)NC(CCSC)C(N)=O)C(=O)CN(C(=O)CN(Cc2ccc3c(c2)OCO3)C(=O)CN[C@H](C)c2ccccc2)[C@H](C)c2ccccc2)cc1 (some centres undefined) (I: H-[Nrpe][Gly(N-piperonyl)][Nrpe][N(4-MeOBn)Gly][ξK][ξK][ξK][ξM]-NH2 / II: H-[Nrpe][Gly(N-piperonyl)][Nrpe][N(4-MeOBn)Gly][ξK]([ξK-ξK-Gly])[AEEA][βAla]; amide I:5-II:C) | Active |
